Measured values from BindingDB's records for doi:10.1021/jm00037a021 (Rhône-Poulenc Rorer, 1994).

Molecular target: cGMP-specific 3',5'-cyclic phosphodiesterase PDE V (Sus scrofa)
Assay: Inhibitory potency against pig aortic PDE V.

| Structure (SMILES) | IC50 [µM] |
| --- | --- |
| COc1ccc(C(=O)Nc2ccccc2SC)cc1OC1CCCC1 [3-Cyclopentyloxy-4-methoxy-N-(2-methylsulfanyl-phenyl)-benzamide] | > 200 |
| COc1ccc(C(=O)Nc2ccccc2O)cc1OC1CCCC1 [3-Cyclopentyloxy-N-(2-hydroxy-phenyl)-4-methoxy-benzamide] | 175 |
| COC(=O)c1ccccc1NC(=O)c1ccc(OC)c(OC2CCCC2)c1 [2-(3-Cyclopentyloxy-4-methoxy-benzoylamino)-benzoic acid methyl ester] | 5.5 |
| COc1ccc(C(=O)Nc2ccc(F)cc2)cc1OC1CCCC1 [3-Cyclopentyloxy-N-(4-fluoro-phenyl)-4-methoxy-benzamide] | > 1000 |
| COc1ccc(C(=O)Nc2c(F)cccc2F)cc1OC1CCCC1 [3-Cyclopentyloxy-N-(2,6-difluoro-phenyl)-4-methoxy-benzamide] | > 1000 |
| COc1ccc(C(=O)Nc2ccc(Cl)cc2)cc1OC1CCCC1 [N-(4-Chloro-phenyl)-3-cyclopentyloxy-4-methoxy-benzamide] | > 1000 |
| COc1ccc(C(=O)Nc2ccc(C)cc2)cc1OC1CCCC1 [3-Cyclopentyloxy-4-methoxy-N-p-tolyl-benzamide] | > 200 |
| COc1ccc(C(=O)Nc2ccccc2C(F)(F)F)cc1OC1CCCC1 [3-Cyclopentyloxy-4-methoxy-N-(2-trifluoromethyl-phenyl)-benzamide] | > 1000 |
| COc1ccc(C(=O)Nc2ccccc2C(=O)c2ccccc2)cc1OC1CCCC1 [N-(2-Benzoyl-phenyl)-3-cyclopentyloxy-4-methoxy-benzamide] | 2.5 |

Next, values leading:

| IC50 [µM] | Structure (SMILES) |
| --- | --- |
| > 1000 | COc1ccc(C(=O)Nc2c(F)cccc2Cl)cc1OC1CCCC1 [N-(2-Chloro-6-fluoro-phenyl)-3-cyclopentyloxy-4-methoxy-benzamide] |
| > 1000 | COc1ccc(C(=O)Nc2c(C)cccc2Cl)cc1OC1CCCC1 [N-(2-Chloro-6-methyl-phenyl)-3-cyclopentyloxy-4-methoxy-benzamide] |
| > 1000 | COc1ccc(C(=O)Nc2ccccc2F)cc1OC1CCCC1 [3-(cyclopentyloxy)-N-(2-fluorophenyl)-4-methoxybenzamide] |
| > 200 | COc1ccc(C(=O)Nc2cccc(Cl)c2Cl)cc1OC1CCCC1 [3-Cyclopentyloxy-N-(2,3-dichloro-phenyl)-4-methoxy-benzamide] |
| > 40 | COc1ccc(C(=O)Nc2cccc(Cl)c2)cc1OC1CCCC1 [N-(3-Chloro-phenyl)-3-cyclopentyloxy-4-methoxy-benzamide] |
| > 1000 | COc1ccc(C(=O)Nc2ccccc2C)cc1OC1CCCC1 [3-Cyclopentyloxy-4-methoxy-N-o-tolyl-benzamide] |
| > 1000 | COc1ccc(C(=O)Nc2ccccc2Br)cc1OC1CCCC1 [N-(2-Bromo-phenyl)-3-cyclopentyloxy-4-methoxy-benzamide] |
| > 200 | COc1ccc(C(=O)Nc2ccccc2Cl)cc1OC1CCCC1 [N-(2-Chloro-phenyl)-3-cyclopentyloxy-4-methoxy-benzamide] |
